Data from the supplement of paper PMC10307832.

Columns and labels:
Test in all cases: relative viability (nuclei count vs DMSO), 5 days (fraction); higher = more cells survive
NPK76-II-72-1 + OSI-027 = compound: CC1CC(=O)N(C2=CN=C(N=C2N1C3CCCC3)NC4=C(C=C(C=C4)C(=O)NC5CCN(CC5)C)OC)C [NPK76-II-72-1] + COc1cccc2cc(-c3nc([C@H]4CC[C@H](C(=O)O)CC4)n4ncnc(N)c34)[nH]c12 [OSI-027] (partner 0.5 µM)
Procedure, shortened: (§1)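 Five library-drug doses in √10 steps were combined with a fixed anchor-drug dose, or a single drug was given alone, by pin tool to lung cancer cell lines in 1536-well plates the day after seeding. Nuclei were stained and counted after 5 days. Relative viability is the nuclei count in treated wells over that in vehicle wells, taken as the median of duplicate plates.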

[1] = compound: CC1CC(=O)N(C2=CN=C(N=C2N1C3CCCC3)NC4=C(C=C(C=C4)C(=O)NC5CCN(CC5)C)OC)C [NPK76-II-72-1] + O=C(CCCCCCC(=O)Nc1ccccc1)NO [Vorinostat] (partner 1 µM)
Procedure, shortened: as §1

BI-2536 + Navitoclax = compound: CC[C@@H]1C(=O)N(C)c2cnc(Nc3ccc(C(=O)NC4CCN(C)CC4)cc3OC)nc2N1C1CCCC1 [BI-2536] + CC1(C)CCC(c2ccc(Cl)cc2)=C(CN2CCN(c3ccc(C(=O)NS(=O)(=O)c4ccc(N[C@H](CCN5CCOCC5)CSc5ccccc5)c(S(=O)(=O)C(F)(F)F)c4)cc3)CC2)C1 [Navitoclax] (partner 0.5 µM)
Procedure, shortened: as §1

BI-2536 + Linsitinib = compound: CC[C@@H]1C(=O)N(C)c2cnc(Nc3ccc(C(=O)NC4CCN(C)CC4)cc3OC)nc2N1C1CCCC1 [BI-2536] + C[C@]1(O)C[C@@H](c2nc(-c3ccc4ccc(-c5ccccc5)nc4c3)c3c(N)nccn32)C1 [Linsitinib] (partner 1 µM)
Procedure, shortened: as §1

Cell Line | relative viability (NPK76-II-72-1 + OSI-027; first compound 0.01 µM) | relative viability (NPK76-II-72-1 + OSI-027; first compound 0.03162 µM) | relative viability (NPK76-II-72-1 + OSI-027; first compound 0.1 µM) | relative viability (NPK76-II-72-1 + OSI-027; first compound 0.3162 µM) | relative viability (NPK76-II-72-1 + OSI-027; first compound 1 µM) | relative viability ([1]; first compound 0.01 µM) | relative viability ([1]; first compound 0.03162 µM) | relative viability ([1]; first compound 0.1 µM) | relative viability ([1]; first compound 0.3162 µM) | relative viability ([1]; first compound 1 µM) | relative viability (BI-2536 + Navitoclax; first compound 0.01 µM) | relative viability (BI-2536 + Navitoclax; first compound 0.03162 µM) | relative viability (BI-2536 + Navitoclax; first compound 0.1 µM) | relative viability (BI-2536 + Navitoclax; first compound 0.3162 µM) | relative viability (BI-2536 + Navitoclax; first compound 1 µM) | relative viability (BI-2536 + Linsitinib; first compound 0.01 µM) | relative viability (BI-2536 + Linsitinib; first compound 0.03162 µM) | relative viability (BI-2536 + Linsitinib; first compound 0.1 µM) | relative viability (BI-2536 + Linsitinib; first compound 0.3162 µM) | relative viability (BI-2536 + Linsitinib; first compound 1 µM)
NCI-H1437 | 0.862 | 0.877 | 0.871 | 0.843 | 0.995 | 0.779 | 0.907 | 0.736 | 0.748 | 0.894 | 1.08 | 1.08 | 0.714 | 0.145 | 0.142 | 1.03 | 0.901 | 0.941 | 0.123 | 0.0942
NCI-H1651 | 0.676 | 0.743 | 0.677 | 0.652 | 0.799 | 0.57 | 0.565 | 0.634 | 0.557 | 0.607 | 1.14 | 1.13 | 0.683 | 0.0829 | 0.055 | 0.976 | 1.01 | 0.878 | 0.119 | 0.0863
NCI-H1666 | 0.802 | 0.871 | 0.82 | 0.777 | 0.975 | 1.04 | 0.996 | 0.983 | 0.955 | 1.17 | 1.13 | 0.905 | 0.702 | 0.262 | 0.214 | 0.86 | 0.736 | 0.762 | 0.224 | 0.276
NCI-H1734 | 0.495 | 0.625 | 0.64 | 0.589 | 0.628 | 0.857 | 0.845 | 0.779 | 0.764 | 0.951 | 0.746 | 0.629 | 0.636 | 0.102 | 0.113 | 0.947 | 0.896 | 0.859 | 0.238 | 0.228
NCI-H1755 | 0.763 | 0.776 | 0.749 | 0.717 | 0.768 | 0.89 | 0.76 | 0.928 | 0.82 | 0.782 | 1 | 0.909 | 0.903 | 0.152 | 0.127 | 1.03 | 0.992 | 0.971 | 0.455 | 0.272
NCI-H1793 | 0.268 | 0.322 | 0.258 | 0.27 | 0.311 | – | 0.693 | 0.809 | 0.61 | 0.825 | 0.438 | 0.34 | 0.275 | 0.218 | 0.159 | 0.939 | 0.85 | 1.03 | 0.211 | 0.205
NCI-H1915 | 0.616 | 0.708 | 0.659 | 0.584 | 0.654 | 0.504 | 0.537 | 0.483 | 0.442 | 0.574 | 0.781 | 0.765 | 0.694 | 0.11 | 0.0514 | 1.12 | 1.05 | 1.03 | 0.625 | 0.143
NCI-H1944 | 0.422 | 0.44 | 0.364 | 0.369 | 0.541 | 0.49 | 0.583 | 0.508 | 0.485 | 0.646 | 1.05 | 1.05 | 1.05 | 0.377 | 0.157 | 1.35 | 1.27 | 1.17 | 1.02 | 0.283
NCI-H1975 | 0.698 | 0.712 | 0.753 | 0.72 | 0.753 | 0.676 | 0.736 | 0.662 | 0.694 | 0.712 | 1.12 | 1.08 | 0.932 | 0.182 | 0.17 | 0.948 | 0.861 | 1.03 | 0.192 | 0.147
NCI-H1993 | 0.532 | 0.534 | 0.51 | 0.528 | 0.549 | 0.486 | 0.777 | 0.784 | 0.725 | 0.728 | 0.984 | 0.926 | 0.492 | 0.553 | 0.549 | 0.709 | 0.637 | 0.579 | 0.528 | 0.611
NCI-H2009 | 0.659 | 0.671 | 0.596 | 0.547 | 0.778 | 0.696 | 0.713 | 0.705 | 0.728 | 0.77 | 1.14 | 1.05 | 0.7 | 0.121 | 0.0887 | 1.21 | 1.18 | 1.14 | 0.394 | 0.294
NCI-H2023 | 0.373 | 0.426 | 0.412 | 0.415 | 0.454 | 0.504 | 0.655 | 0.69 | 0.563 | 0.614 | 0.984 | 0.92 | 0.723 | 0.0972 | 0.0716 | 0.67 | 0.667 | 0.606 | 0.0984 | 0.109
NCI-H2085 | 0.577 | 0.773 | 0.68 | 0.644 | 0.771 | 0.731 | 0.808 | 0.794 | 0.821 | 0.842 | 1.04 | 1.13 | 0.704 | 0.208 | 0.272 | 0.958 | 0.919 | 0.831 | 0.267 | 0.329
NCI-H2087 | 0.486 | 0.644 | 0.491 | 0.513 | 0.645 | 0.569 | 0.854 | 0.572 | 0.485 | 0.814 | 0.868 | 0.974 | 0.8 | 0.112 | 0.138 | 0.83 | 1.06 | 0.927 | 0.197 | 0.163
NCI-H2126 | 0.716 | 0.734 | 0.678 | 0.738 | 0.796 | 0.761 | 0.798 | 0.846 | 0.713 | 0.828 | 0.847 | 0.843 | 0.75 | 0.328 | 0.25 | 0.751 | 0.759 | 0.721 | 0.46 | 0.268
NCI-H2228 | 0.427 | 0.615 | 0.547 | 0.55 | 0.724 | 0.543 | 0.608 | 0.587 | 0.589 | 0.578 | 1.03 | 0.999 | 0.933 | 0.0826 | 0.121 | 0.692 | 1.06 | 0.63 | 0.116 | 0.155
